Reference: ChEMBL document CHEMBL1129778, “Design and synthesis of bisubstrate analogues for 3-hydroxy-3-methyl-glutaryl coenzyme a reductase” (Bioorg Med Chem Lett, 1996)
Calls of active or inactive are those of the source. The rule behind the calls is not given here.

Biological target: T1, 3-hydroxy-3-methylglutaryl-coenzyme A reductase (Rattus norvegicus) (UniProt P51639)
T1 sequence (whole entry): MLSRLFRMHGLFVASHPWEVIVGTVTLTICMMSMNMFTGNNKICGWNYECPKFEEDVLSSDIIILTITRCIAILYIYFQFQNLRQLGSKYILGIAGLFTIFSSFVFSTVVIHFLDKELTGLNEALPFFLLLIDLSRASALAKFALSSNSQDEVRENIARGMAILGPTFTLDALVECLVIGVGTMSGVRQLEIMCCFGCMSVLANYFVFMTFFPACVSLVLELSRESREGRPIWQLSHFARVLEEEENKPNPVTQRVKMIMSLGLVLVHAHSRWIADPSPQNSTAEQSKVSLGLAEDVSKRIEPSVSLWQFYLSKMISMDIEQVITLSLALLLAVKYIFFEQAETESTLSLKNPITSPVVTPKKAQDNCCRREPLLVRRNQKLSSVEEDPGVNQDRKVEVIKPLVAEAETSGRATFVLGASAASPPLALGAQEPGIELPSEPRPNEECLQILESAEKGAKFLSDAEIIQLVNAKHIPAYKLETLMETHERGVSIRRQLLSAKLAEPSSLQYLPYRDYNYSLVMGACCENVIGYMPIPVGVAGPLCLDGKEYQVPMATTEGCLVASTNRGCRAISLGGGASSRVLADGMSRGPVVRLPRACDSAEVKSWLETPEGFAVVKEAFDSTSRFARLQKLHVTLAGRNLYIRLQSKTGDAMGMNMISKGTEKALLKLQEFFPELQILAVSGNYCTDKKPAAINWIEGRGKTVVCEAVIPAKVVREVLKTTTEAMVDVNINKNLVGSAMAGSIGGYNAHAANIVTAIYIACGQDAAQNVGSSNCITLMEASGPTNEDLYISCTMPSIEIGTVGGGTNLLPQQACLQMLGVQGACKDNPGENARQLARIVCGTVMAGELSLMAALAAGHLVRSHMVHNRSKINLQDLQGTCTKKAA
Experiment: Biological activity against rat liver 3-hydroxy-3-methyl glutaryl coenzyme A reductase (HMGR) at a concentration of 10E-4 M; No inhibition
Assay type: tissue-based

Activity | SMILES
inactive | COC(=O)C[C@H](O)C[C@@H](O)Cc1ccncc1C(N)=O
inactive | COC(=O)C[C@H](O)C[C@H](O)Cc1ccncc1C(N)=O
